Measured values as given in patent US11857552B2, “4-[[(7-aminopyrazolo[1,5-a]pyrimidin-5-yl)amino]methyl]piperidin-3-ol compounds as CDK inhibitors” (Carrick Therapeutics Limited, priority 2017, dated 2024).

Tests used:
[1] = Human Plasma Protein Binding (PPB), RED device; type: in vitro ADME; conditions: for Free Fraction: Improvement vs. REF-001: human plasma; for Human PPB / fraction unbound at 240 min, 5 µM: human plasma pH 7.4, 37° C., 240 min
Procedure: Method 4: Human Plasma Protein Binding (PPB)
Materials and solutions: • Human Plasma (Sera Labs, […]). • Bupropion hydrochloride (Sigma, B102). • DPBS (Sigma, D8537). • Formic Acid (Sigma, F0507). • RED Device Single Use (Life Technologies, 90006). • Internal standard solution preparation: A solution of bupropion hydrochloride (50 μL, 10 mM in DMSO) was combined with 0.1% formic acid (1 mL) in acetonitrile (1000 mL).
Once frozen plasma was defrosted and adjusted to pH 7.4 using 1 M lactic acid solution and a portion of this mixture (792 μL) combined with each test compound solution (8 μL, 0.5 mM in DMSO). Portions of the resultant spiked plasma (200 μL) were added to sample compartments of the RED device. DBPS (350 μL) was added to each corresponding buffer compartment. An initial sample (50 μL) was taken and then the RED plate was sealed and incubated at 37° C. for 240 min on an orbital shaker (200 rpm) in a humidified CO2 (5%) atmosphere, alongside plasma and DBPS samples. Each sample well was treated with internal standard solution (300 μL). Aliquots (50 μL) were removed from each buffer well and sample well and replaced with incubated plasma (50 μL) or incubated DPBS (50 μL) respectively. The plate was sealed and centrifuged (3500 rpm, 15 min). Aliquots of the supernatant (100 μL) were combined with water (50 μL) for analysis using a Waters TQS Mass Spectrometer.

[2] = target: human CDK2/cycE1 (Homo sapiens (Human), UniProt P24941); test: CDK2 IC50 (ADP-Glo kinase assay); type: biochemical; conditions: ATP 20 μM, histone H1 substrate
Procedure: (§1) A reaction mixture (6 μL) containing the following components was prepared: 60 mM HEPES (60 mM, pH 7.5), sodium orthovanadate (3 μM), PEG-20000 (50 μg/mL), DTT (1.2 mM), MgCl2 (3 mM), purified human CDK2/cycE1 (4 μg/mL), histone H1 (50 μg/mL), ATP (20 μM) and test compound at the appropriate concentration such that the final concentration of DMSO was 1% w/w. The reaction mixture was incubated at 30° C. for 75 min and then stopped by the addition of ADP-Glo Reagent (6 μL). The reaction was incubated at 25° C. for 1 h to deplete the remaining ATP. Subsequently, Kinase Detection Reagent (12 μL) was added and the reaction was allowed to proceed for 1 h at 25° C. before analysis by luminescence measurement using an Envision Plate Reader (Perkin Elmer).

[3] = target: MDR1 (Homo sapiens (Human), UniProt P08183); test: MDCK-MDR1 Efflux Ratio; type: in vitro ADME; conditions: dog, MDCK-MDR1, pH 7.4, HBSS pH 7.4, 37° C.
Procedure: Method 5: MDCK-MDR1 Efflux Ratio
Materials and solutions: • MDCK/MDR1 Ready™ cell plate (Readycell). • High Glucose Cell Culture Medium (Sigma, D5671) supplemented with: 10% FBS, 1% Glutamine 200 mM, 1% Penicillin (10,000 U/mL)—Streptomycin (10 mg/mL). • HBSS Buffer (Gibco, 14065-049). • Internal standard: 0.5 μM Bupropion in acetonitrile/0.1% formic acid (aq) (1:1 v/v).
HBSS assay buffer was prepared at pH 7.4 and warmed to 37° C. The cell culture media was removed from the Readycell plate. The Basal cells were washed with HBSS buffer (3×225 μL) and the Apical cells were washed with HBSS buffer (3×75 μL). The cells were warmed to 37° C. in a humidified CO2 (5%) atmosphere and shaken at 250 rpm for 30 min. Compound and standard solutions were prepared by diluting each compound (10 μL, 1 mM in DMSO) with HBSS (990 μL). The buffer was carefully removed from the Basal cell plate, followed by the Apical cell plate. HBSS buffer (225 μL) and compound solution (250 μL) were added to the Basal cell plate. An aliquot (25 μL) of the solutions were combined with internal standard (75 μL) and refrigerated for use as the t=0 h sample. HBSS buffer (75 μL) and compound solution (100 μL) were added to the Apical cell plate. An aliquot (25 μL) was taken and processed in the same manner as for the Basal cell plate. […]

[4] = target: BCRP (Homo sapiens (Human), UniProt Q9UNQ0); test: MDCK-BCRP Efflux Ratio; type: in vitro ADME; conditions: dog, pH 7.4, HBSS pH 7.4, 37° C.
Source text: Method 6: MDCK-BCRP Efflux Ratio
Essentially the same as Method 5, but using MDCK/BCRP Ready™ cell plates (Readycell) in place of MDCK/MDR1 plates.

[5] = target: human CDK9/cycK (Homo sapiens (Human), UniProt P50750); test: CDK9 IC50 (ADP-Glo kinase assay); type: biochemical; conditions: ATP 8 μM, CDKtide substrate
Procedure: In addition to those mentioned above for Method 1: • Human CDK9/cycK (Promega, V4104). • CDKtide (SignalChem, C06-58).
as §1, with “CDK9/cycK (2.5” for “CDK2/cycE1 (4”, “CDKtide (35 μM),” for “histone H1 (50 μg/mL),”, “(8” for “(20”, “60” for “75”

[6] = target: human CDK7/cycH/MAT1 (Homo sapiens (Human), UniProt P50613); test: CDK7 IC50 (ADP-Glo kinase assay); type: biochemical; conditions: for IC50: ATP 8 μM, CDKtide substrate; for Ratio CDK2/CDK7: CDK2 IC50 / CDK7 IC50 selectivity; for CDK2/CDK7 Selectivity: Improvement vs. REF-001: ratio of CDK2/CDK7 ratios; for CDK7 Potency: Improvement vs. REF-001: ratio of CDK7 IC50 of REF-001 to compound
Procedure: A reaction mixture (6 μL) containing the following components was prepared: 60 mM HEPES (60 mM, pH 7.5), sodium orthovanadate (3 μM), PEG-20000 (50 μg/mL), DTT (1.2 mM), MgCl2 (3 mM), MnCl2 (3 mM), purified human CDK7/cycH/MAT1 (4 μg/mL), CDKtide (10 μM), ATP (8 μM) and test compound at the appropriate concentration such that the final concentration of DMSO was 1% w/w. The reaction mixture was incubated at 30° C. for 30 min and then stopped by the addition of ADP-Glo Reagent (6 μL). The reaction was incubated at 25° C. for 1 h to deplete the remaining ATP. Subsequently, Kinase Detection Reagent (12 μL) was added and the reaction was allowed to proceed for 1 h at 25° C. before analysis by luminescence measurement using an Envision Plate Reader (Perkin Elmer).

[7] = system: MCF-7 breast cancer cell line; conditions: with 4-hydroxytamoxifen or Faslodex, ERα-positive MCF-7 cells; cited from earlier work

Sequence of human CDK7/cycH/MAT1 (P50613 whole entry): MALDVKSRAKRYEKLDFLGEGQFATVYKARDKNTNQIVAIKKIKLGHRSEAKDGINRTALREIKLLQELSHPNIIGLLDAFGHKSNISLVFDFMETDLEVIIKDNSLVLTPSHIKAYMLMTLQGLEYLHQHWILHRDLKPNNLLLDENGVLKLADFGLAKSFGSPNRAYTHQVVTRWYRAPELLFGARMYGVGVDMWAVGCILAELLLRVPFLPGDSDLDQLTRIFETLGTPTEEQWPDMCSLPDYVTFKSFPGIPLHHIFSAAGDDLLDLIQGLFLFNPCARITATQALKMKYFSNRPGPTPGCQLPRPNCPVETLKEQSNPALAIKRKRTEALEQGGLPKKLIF
Sequence of human CDK7/cycH/MAT1 (P51946 whole entry partner): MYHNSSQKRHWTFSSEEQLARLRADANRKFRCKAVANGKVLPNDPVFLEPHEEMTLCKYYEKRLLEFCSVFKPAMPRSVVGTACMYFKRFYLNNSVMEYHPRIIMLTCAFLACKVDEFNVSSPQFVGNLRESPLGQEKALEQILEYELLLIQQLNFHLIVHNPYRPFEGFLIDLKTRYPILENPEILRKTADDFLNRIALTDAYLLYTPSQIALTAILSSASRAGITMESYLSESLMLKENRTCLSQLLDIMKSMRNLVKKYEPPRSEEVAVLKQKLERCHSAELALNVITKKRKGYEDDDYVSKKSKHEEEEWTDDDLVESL
Sequence of human CDK7/cycH/MAT1 (P51948 whole entry partner): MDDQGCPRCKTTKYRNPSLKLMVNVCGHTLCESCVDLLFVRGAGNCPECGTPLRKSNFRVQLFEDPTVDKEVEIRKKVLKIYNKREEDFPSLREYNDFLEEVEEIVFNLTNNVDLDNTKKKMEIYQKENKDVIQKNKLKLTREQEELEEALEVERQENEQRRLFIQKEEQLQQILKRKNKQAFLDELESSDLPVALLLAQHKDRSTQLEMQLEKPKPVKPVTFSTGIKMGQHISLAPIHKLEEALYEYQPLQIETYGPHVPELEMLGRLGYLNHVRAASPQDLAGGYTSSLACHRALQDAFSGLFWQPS
Sequence of human CDK9/cycK (P50750 whole entry): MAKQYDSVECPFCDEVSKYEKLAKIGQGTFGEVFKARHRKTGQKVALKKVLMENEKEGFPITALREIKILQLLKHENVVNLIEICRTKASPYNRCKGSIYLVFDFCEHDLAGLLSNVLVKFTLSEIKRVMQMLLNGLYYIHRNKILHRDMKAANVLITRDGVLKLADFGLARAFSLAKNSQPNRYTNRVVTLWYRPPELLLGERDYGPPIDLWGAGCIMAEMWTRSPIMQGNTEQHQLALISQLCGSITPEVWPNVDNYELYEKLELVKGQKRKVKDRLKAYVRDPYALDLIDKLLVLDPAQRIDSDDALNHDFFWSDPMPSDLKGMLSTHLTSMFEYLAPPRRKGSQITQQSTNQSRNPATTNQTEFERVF
Sequence of human CDK9/cycK (O75909 whole entry partner): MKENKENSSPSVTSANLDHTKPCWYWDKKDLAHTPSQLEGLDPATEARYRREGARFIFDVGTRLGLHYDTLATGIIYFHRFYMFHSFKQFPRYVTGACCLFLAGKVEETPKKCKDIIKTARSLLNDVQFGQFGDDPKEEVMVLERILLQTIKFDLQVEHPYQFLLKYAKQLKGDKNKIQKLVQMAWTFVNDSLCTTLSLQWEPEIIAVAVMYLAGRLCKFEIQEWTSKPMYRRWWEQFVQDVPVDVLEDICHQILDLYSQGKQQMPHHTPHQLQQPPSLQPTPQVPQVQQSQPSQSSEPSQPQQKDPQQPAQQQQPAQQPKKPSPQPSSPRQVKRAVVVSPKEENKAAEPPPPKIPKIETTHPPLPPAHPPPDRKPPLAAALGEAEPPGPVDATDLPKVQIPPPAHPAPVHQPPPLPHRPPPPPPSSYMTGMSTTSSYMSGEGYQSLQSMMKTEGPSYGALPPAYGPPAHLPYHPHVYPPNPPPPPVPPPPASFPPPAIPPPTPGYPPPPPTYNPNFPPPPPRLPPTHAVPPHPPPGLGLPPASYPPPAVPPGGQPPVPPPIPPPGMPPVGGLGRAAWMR
Sequence of BCRP (Q9UNQ0 whole entry): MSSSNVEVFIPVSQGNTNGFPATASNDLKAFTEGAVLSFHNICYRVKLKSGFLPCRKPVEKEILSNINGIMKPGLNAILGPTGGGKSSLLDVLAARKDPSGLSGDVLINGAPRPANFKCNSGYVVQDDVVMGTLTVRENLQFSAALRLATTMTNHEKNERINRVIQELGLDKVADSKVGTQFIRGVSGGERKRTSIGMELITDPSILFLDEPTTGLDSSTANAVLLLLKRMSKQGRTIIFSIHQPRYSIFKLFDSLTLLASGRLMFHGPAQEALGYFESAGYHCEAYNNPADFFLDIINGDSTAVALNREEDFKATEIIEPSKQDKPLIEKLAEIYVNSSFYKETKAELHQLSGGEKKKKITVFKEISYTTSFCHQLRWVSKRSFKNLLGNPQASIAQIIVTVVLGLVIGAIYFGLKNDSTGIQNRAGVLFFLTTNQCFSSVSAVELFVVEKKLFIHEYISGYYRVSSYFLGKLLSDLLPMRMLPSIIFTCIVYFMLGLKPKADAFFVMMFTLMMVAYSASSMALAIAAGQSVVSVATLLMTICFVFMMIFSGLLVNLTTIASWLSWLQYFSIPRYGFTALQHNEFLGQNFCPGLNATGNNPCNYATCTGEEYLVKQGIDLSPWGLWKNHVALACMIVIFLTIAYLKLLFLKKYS
Sequence of MDR1 (P08183 whole entry): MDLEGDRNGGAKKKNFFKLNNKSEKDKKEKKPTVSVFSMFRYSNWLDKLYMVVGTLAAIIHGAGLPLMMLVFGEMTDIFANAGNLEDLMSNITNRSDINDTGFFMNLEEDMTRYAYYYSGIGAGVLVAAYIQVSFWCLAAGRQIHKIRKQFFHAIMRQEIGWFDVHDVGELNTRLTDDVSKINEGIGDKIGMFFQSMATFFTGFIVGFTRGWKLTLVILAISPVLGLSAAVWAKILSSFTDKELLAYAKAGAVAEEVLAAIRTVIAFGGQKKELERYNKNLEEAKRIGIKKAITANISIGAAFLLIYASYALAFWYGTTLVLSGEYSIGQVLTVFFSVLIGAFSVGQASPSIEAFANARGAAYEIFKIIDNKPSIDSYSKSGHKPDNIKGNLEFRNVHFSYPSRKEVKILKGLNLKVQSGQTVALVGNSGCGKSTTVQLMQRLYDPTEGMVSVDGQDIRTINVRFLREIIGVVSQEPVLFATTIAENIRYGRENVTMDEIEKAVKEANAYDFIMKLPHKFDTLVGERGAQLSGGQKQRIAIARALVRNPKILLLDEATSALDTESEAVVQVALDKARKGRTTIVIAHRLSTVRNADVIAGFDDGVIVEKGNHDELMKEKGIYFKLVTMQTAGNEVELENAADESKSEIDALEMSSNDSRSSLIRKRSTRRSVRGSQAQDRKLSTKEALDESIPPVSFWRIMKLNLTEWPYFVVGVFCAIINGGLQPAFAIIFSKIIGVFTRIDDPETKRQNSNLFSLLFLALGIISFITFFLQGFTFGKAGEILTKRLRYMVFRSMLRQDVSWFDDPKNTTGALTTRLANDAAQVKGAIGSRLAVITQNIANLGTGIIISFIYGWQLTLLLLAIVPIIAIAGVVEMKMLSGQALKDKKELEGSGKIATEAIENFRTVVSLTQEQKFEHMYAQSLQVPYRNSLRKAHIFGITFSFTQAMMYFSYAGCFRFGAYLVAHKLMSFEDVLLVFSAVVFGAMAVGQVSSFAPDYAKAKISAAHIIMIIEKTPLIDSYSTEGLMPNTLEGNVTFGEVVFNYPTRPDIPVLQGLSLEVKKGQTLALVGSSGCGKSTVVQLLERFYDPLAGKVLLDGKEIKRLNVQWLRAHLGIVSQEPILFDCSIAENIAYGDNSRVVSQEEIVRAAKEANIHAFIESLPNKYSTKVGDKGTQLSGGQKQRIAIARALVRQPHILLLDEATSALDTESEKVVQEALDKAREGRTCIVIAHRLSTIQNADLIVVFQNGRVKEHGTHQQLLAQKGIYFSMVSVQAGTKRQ

Structure (SMILES) | Free Fraction: Improvement vs. REF-001 [1] | Human PPB [1] | fraction unbound at 240 min, 5 µM [1] | IC50 [2] | efflux ratio at 2 h, 10 µM [3] | efflux ratio at 2 h, 10 µM [4] | IC50 [5] | IC50 [6] | Ratio CDK2/CDK7 [6] | CDK2/CDK7 Selectivity: Improvement vs. REF-001 [6] | CDK7 Potency: Improvement vs. REF-001 [6] | effect of the combination with an anti-estrogen on growth of breast cancer cells [7]
CCc1cnn2c(NCc3cccc(C#N)c3)c(Cl)c(NC[C@H]3CCNC[C@@H]3O)nc12 [APPAMP-004, 3-(((6-chloro-3-ethyl-5-((((3R,4R)-3-hydroxypiperidin-4-yl)methyl)amino)pyrazolo[1,5-a]pyrimidin-7-yl)amino)methyl)benzonitrile] | – | – | – | 2400 nM | – | – | 130 nM | 4.2 nM | 571 | 29.4 fold | 8.10 fold | –
O[C@H]1CNCC[C@@H]1CNc1cc(NCc2ccccc2)n2ncc(C3CC3)c2n1 [APPAMP-002, (3R,4R)-4-(((7-(benzylamino)-3-cyclopropylpyrazolo[1,5-a]pyrimidin-5-yl)amino)methyl)piperidin-3-ol] | 2.43 fold | 83% | 0.17 | 770 nM | 5.7 | 2 | 210 nM | 33 nM | 23 | 1.20 fold | 1.03 fold | –
CCc1cnn2c(NCc3cccc(C#N)c3)cc(NC[C@H]3CCNC[C@@H]3O)nc12 [APPAMP-003, 3-(((3-ethyl-5-((((3R,4R)-3-hydroxypiperidin-4-yl)methyl)amino)pyrazolo[1,5-a]pyrimidin-7-yl)amino)methyl)benzonitrile] | – | – | – | 190 nM | – | – | 22 nM | 8.9 nM | 21 | 1.10 fold | 3.82 fold | –

Continued, in another order:

Free Fraction: Improvement vs. REF-001 [1] | Human PPB [1] | fraction unbound at 240 min, 5 µM [1] | IC50 [2] | efflux ratio at 2 h, 10 µM [3] | efflux ratio at 2 h, 10 µM [4] | IC50 [5] | IC50 [6] | Ratio CDK2/CDK7 [6] | CDK2/CDK7 Selectivity: Improvement vs. REF-001 [6] | CDK7 Potency: Improvement vs. REF-001 [6] | Structure (SMILES) | effect of the combination with an anti-estrogen on growth of breast cancer cells [7]
2.14 fold | 85% | 0.15 | 640 nM | 2 | 5 | 200 nM | 13 nM | 49 | 2.54 fold | 2.62 fold | CCc1cnn2c(NCc3ccccc3F)cc(NC[C@H]3CCNC[C@@H]3O)nc12 [APPAMP-001, (3R,4R)-4-(((3-ethyl-7-((2-fluorobenzyl)amino)pyrazolo[1,5-a]pyrimidin-5-yl)amino)methyl)piperidin-3-ol] | –
– | 93% | 0.07 | – | – | – | – | – | – | – | – | CC(C)c1cnn2c(NCc3ccccc3)cc(NC[C@H]3CCNC[C@@H]3O)nc12 [REF-001, (3R,4R)-4-(((7-(benzylamino)-3-isopropylpyrazolo[1,5-a]pyrimidin-5-yl)amino)methyl)piperidin-3-ol, reference compound] | synergistic effects
